In brackets after ≈: the same amount, converted by molar mass. Where two headings read alike, the source gives them in different places.
Assays:
Format in all cases: cell-based
[1] = system: methicillin-resistant Staphylococcus aureus MRSA 18-575; test: micro broth dilution MIC, MRSA 18-575; conditions: read-out: The minimum inhibitory concentration, MRSA 18-575
Excerpt: (§1) Using micro broth dilution method, with ceftazidime and vancomycin as positive controls, test the minimum inhibitory concentration (MIC) of compounds 9, 11, and 14.
(§2) The experimental strains included drug-resistant gram-positive bacteria: methicillin-resistant Staphylococcus aureus MRSA 18-575, 18-596; drug-resistant gram-negative bacteria: multi-drug-resistant Pseudomonas aeruginosa MDR-PA 18-126, 18-756. The experimental strains were all donated by Huashan Hospital Affiliated to Fudan University (Fudan University Antibiotic Research Institute), and used after being identified by conventional methods.
(§3) The specific steps are as follows:
(§4) Preparation of MHB medium: Weigh 20.0 g of MHB medium, add it to 1L of distilled water, heat and boil until it is completely dissolved, divide it into conical flasks, autoclave at 121° C. for 15 minutes, and set aside.
(§5) Cultivate the experimental strains to the logarithmic growth phase: under aseptic conditions, inoculate the experimental strains into 100 mL of MHB medium, and place them in a constant temperature and humidity incubator at 37° C. for 20-22 hours for use.
(§6) Preparation of stock solution: Weigh the sample to be tested and dissolve it with 1% DMSO solution to prepare a stock solution with a concentration of 2560 μg/mL; weigh the positive control substance and dissolve it with sterile distilled water to prepare a stock solution with a concentration of 2560 μg/mL.
(§7) Bacterial suspension preparation: Under aseptic conditions, the experimental strains cultured to the logarithmic growth phase are calibrated to 0.5 McDonald's unit turbidity standard with MHB medium and diluted at a ratio of […] to prepare a concentration of 10^6 CFU/mL Bacterial suspension, spare.
(§8) Stock solution dilution and inoculation of experimental strains: under aseptic conditions, dilute the stock solution to a solution of 256 μg/mL. Take a sterile 96-well plate, add 100 μL of MHB medium to each well except for wells 1-3; add 100 μL of positive control solution to well 2 and 100 μL of compound sample solution to wells 3 and 4; Mix the sample solution in the well with the culture medium, and then pipet 100 μL to the fifth well. After mixing, pipet 100 μL to the sixth well, and then dilute to the tenth well by successive times, and then take 100 μL from the tenth well and discard it. The 11th well is a growth control without drugs; then, add 100 μL of the above-prepared bacterial suspension to each well, so that the final bacterial concentration in each well is 5×10^5 CFU/mL; at this point, the positive control concentration is 128 μg/mL, the concentration of the sample solution is 128, 64, 32, 16, 8, 4, 2, 1 μg/mL.
(§9) Incubation: Cover the 96-well plate that has been inoculated with experimental strains and place it in a constant temperature and humidity box at 37° C. for 20-22 hours.
(§10) Record the results as shown in FIGS. 1 to 10 (the holes are in order from left to right corresponding to positive, 128, 64, 32, 16, 8, 4, 2, 1, negative) and Table 1.

[2] = system: multi-drug-resistant Pseudomonas aeruginosa MDR-PA 18-756; test: micro broth dilution MIC, MDR-PA 18-756; conditions: read-out: The minimum inhibitory concentration, MDR-PA 18-756
Excerpt: as §1, §2, §3, §4, §5, §6, §7
as §8, with “1 μg/mL. […]” for “1 μg/mL.”

[3] = system: methicillin-resistant Staphylococcus aureus MRSA 18-596; test: micro broth dilution MIC, MRSA 18-596
Excerpt: as §1, §2, §3, §4, §5, §6, §7, §8, §9, §10

[4] = system: multi-drug-resistant Pseudomonas aeruginosa MDR-PA 18-126; test: micro broth dilution MIC, MDR-PA 18-126
Excerpt: as §1, §2, §3, §4, §5, §6, §7, §8, §9, §10

[5] = MRSA, read-out: The minimum inhibitory concentration, MRSA 18-596
[6] = read-out: The minimum inhibitory concentration, MDR-PA 18-126

| SMILES | MIC ([1]; strain MRSA 18-575, MHB medium, 37° C., 20-22 hours) [µg/mL] | MIC ([2]; strain MDR-PA 18-756, MHB medium, 37° C., 20-22 hours) [µg/mL] | MIC ([3]; strain MRSA 18-596, MHB medium, 37° C., 20-22 hours, read-out: The minimum inhibitory concentration, MRSA 18-596) [µg/mL] | MIC ([4]; strain MDR-PA 18-126, MHB medium, 37° C., 20-22 hours, read-out: The minimum inhibitory concentration, MDR-PA 18-126) [µg/mL] | MIC ([1]; MRSA) [µg/mL] | MIC [2] [µg/mL] | MIC [3, 5] [µg/mL] | MIC [4, 6] [µg/mL] | MIC ([3]; MRSA, read-out: MIC against drug-resistant gram-positive bacteria MRSA) [µg/mL] | MIC ([4]; read-out: MIC against MDR-PA) [µg/mL] |
| --- | --- | --- | --- | --- | --- | --- | --- | --- | --- | --- |
| CC(C)(O/N=C(\C(=O)N[C@@H]1C(=O)N2C(C(=O)[O-])=C(C[n+]3ccccc3)CS[C@H]12)c1csc(N)n1)C(=O)O [Ceftazidime, reference compound] | 128 (≈ 234 µM) | 128 (≈ 234 µM) | 128 (≈ 234 µM) | 128 (≈ 234 µM) | – | – | – | – | – | – |
| N#Cc1c(N)[se]c2c1CCCC2 [Compound 9] | – | – | – | – | 128 (≈ 569 µM) | 128 (≈ 569 µM) | 128 (≈ 569 µM) | > 128 | – | – |
| N#Cc1c(N)[se]c2c1CCCCC2 [Compound 11] | – | – | – | – | 32 (≈ 134 µM) | 64 (≈ 268 µM) | 16 (≈ 66.9 µM) | 64 (≈ 268 µM) | 16 (≈ 66.9 µM) | 64 (≈ 268 µM) |
| CCCCc1c[se]c(N)c1C#N [Compound 14] | – | – | – | – | 128 (≈ 563 µM) | > 128 | 64 (≈ 282 µM) | 64 (≈ 282 µM) | – | – |
| CN[C@H](CC(C)C)C(=O)N[C@H]1C(=O)N[C@@H](CC(N)=O)C(=O)N[C@H]2C(=O)N[C@H]3C(=O)N[C@H](C(=O)N[C@H](C(=O)O)c4cc(O)cc(O)c4-c4cc3ccc4O)[C@H](O)c3ccc(c(Cl)c3)Oc3cc2cc(c3O[C@@H]2O[C@H](CO)[C@@H](O)[C@H](O)[C@H]2O[C@H]2C[C@](C)(N)[C@H](O)[C@H](C)O2)Oc2ccc(cc2Cl)[C@H]1O [Vancomycin, reference compound] | – | – | – | – | 512 (≈ 353 µM) | – | 512 (≈ 353 µM) | – | – | – |

Source: US20220356164A1, “2-AMINOSELENOPHEN COMPOUNDS WITH ANTI-DRUG RESISTANT BACTERIA ACTIVITY AND A METHOD OF PREPARING THE SAME” (ZHUHAI JINAN SELENIUM SOURCE NANOTECHNOLOGY CO., LTD., priority 2021, published 2022)
